Experimental data from US4719297A, “Acylphosphine compounds and their use as photoinitiators” (priority 1981, dated 1988).

How the values were obtained:
[1] = Shelf life of UP resin C containing a photoinitiator, stored at 60° C. (Table 3); assay type: physicochemical; conditions: 0.2% initiator, dark
Method: (§1) To test the shelf life, 6.6 ml of each of the UP resins A, B and C (cf. Example 5) with an initiator content of 0.2% were introduced into brown sample bottles, and the closed bottles were stored at 60° C. At intervals of about 12 hours, the bottles were turned to determine whether gel particles had formed. As a measure of the shelf life, Table 3 gives the maximum storage time at which gel particles were still not observed.
(§2) In addition to the comparative compounds I, II and III, compound V below was also tested: V 2,4,6-trimethylbenzoyldiphenylphosphine oxide as described in U.S. Pat. No. 4,265,723.
(§3) The numbering scheme of the compounds in Table 3 is based on that of Table 1.

[2] = Shelf life of UP resin A containing a photoinitiator, stored at 60° C. (Table 3); assay type: physicochemical; conditions: 0.2% initiator, dark
Method: as §1, §2, §3

[3] = Shelf life of UP resin B containing a photoinitiator, stored at 60° C. (Table 3); assay type: physicochemical; conditions: 0.2% initiator, dark
Method: as §1, §2, §3

[4] = Hardening activity of UP resin C under UV light, temperature/time curve (Table 2); conditions: 0.2% compound
Method: (§4) To measure the hardening activity, the temperature curve for the unsaturated polyester resin (UP resin) was recorded during exposure to UV light. […] To avoid heat losses during the exposure to UV light, the lid was embedded in rigid expanded polyurethane foam. The UV light source used comprised 5 fluorescent tubes (TLAK 40 W/05 from Philips) side by side, at a distance of 8.5 cm from the UP resin surface.
(§5) The hardening time HT25° C.-T.sbsb.max and the maximum hardening temperature Tmax achieved were obtained, as characteristic parameters for the hardening activity, from the recorded temperature/time curves. The hardening time is the interval in which the sample temperature increases from 25° C. to Tmax.
(§6) The Examples and Comparative Examples were carried out using the following unsaturated polyester resins:
Resin C was a 66% strength solution, in styrene, of an unsaturated polyester of maleic acid, o-phthalic acid and propylene 1,2-glycol in the molar ratio of 1:0.5:1.5, the solution being stabilized with 0.01% of hydroquinone.
(§7) The hardening activity of the novel compounds 1 to 16 (cf. Table 1) was compared with the properties of the following compounds: […]

[5] = Hardening activity of UP resin A under UV light, temperature/time curve (Table 2); conditions: 0.2% compound
Method: as §4, §5, §6
Resin A was a 65% strength solution, in styrene, of an unsaturated polyester of maleic acid, o-phthalic acid, ethylene glycol and propylene 1,2-glycol in the molar ratio of 1:2:2.3:0.70, the solution being stabilized with 0.01% of hydroquinone.
as §7

[6] = Shelf life of resins containing the compounds, overall comparison; assay type: physicochemical; conditions: Table 3, in words
Method: as §1, §2

[7] = Hardening activity of UP resin B under UV light, temperature/time curve (Table 2); conditions: 0.2% compound
Method: as §4, §5, §6
Resin B was a 67% strength solution, in styrene, of an unsaturated polyester of maleic acid, tetrahydrophthalic acid and diethylene glycol in the molar ratio of 1:0.5:1.5, the solution being stabilized with 0.01% of hydroquinone.
as §7

[8] = Minimum exposure time for faultless reproduction of the 3% tonality on photopolymerizable printing plate (Table 7); conditions: 2 parts photoinitiator; UV about 3,300 μW/cm^2
Method: 60 parts by weight of a 1:1:1 copolyamide consisting of PA-6, PA-6.6 and PA-6.13, 30 parts by weight of ethylene glycol bis-(N-methylolacrylamide) ether, 10 parts by weight of benzenesulfonic acid N-(n-butyl)-amide, 150 parts by weight of methanol, 20 parts by weight of water, 0.02 part by weight of a chromium complex dye (CI No. 12,195), 0.3 part by weight of potassium N-nitrosocyclohexylhydroxylamine and 2 parts by weight of the photoinitiator given in Table 7 were dissolved at about 70° C. The photopolymerizable material was brought to a solids content of about 65% by distilling off part of the solvent and was then cast, at 60° C., on to a strip of steel sheet provided with an adhesive, and drying was effected in a drying oven for about 2 hours at 80° C. The resulting photopolymerizable printing plate contained a 0.5 mm thick layer with a solids content of about 95%.
Using a test negative which had, inter alia, 54 screen lines, per centimeter, of 3% tonality, the plate was exposed to a UV light intensity of about 3,300 μW/cm^2 on a flat-plate exposure unit equipped with superactinic fluorescent tubes. The unexposed parts of the plate which were protected from the UV light by the opaque image elements of the negative were then washed out in a spray washer for 5 minutes at 30° C. and under a spray pressure of 5 bar, using an ethanol/water mixture containing 80% of ethanol. The plate was thereafter dried for 6 minutes at 110° C. The minimum exposure time required for faultless reproduction of the 3% tonality was measured, and the results for various photoinitiators are summarized in Table 7.

[9] = Photopolymerization of monomer emulsion, properties of resulting polymer dispersions (Table 5)
Method: A monomer emulsion was prepared from 50 parts of methyl acrylate, 50 parts of ethyl acrylate, 1.3 parts of a 40% strength C15 -paraffin sulfonate, 1.3 parts of an adduct of isooctylphenol with 25 units of ethylene oxide (20% strength) and 210 parts of water in a conventional mixing unit.
This emulsion was introduced into a 1 l glass flask provided with an internal thermometer and a stirrer, and was freed from oxygen by twice evacuating the flask and gassing the emulsion with nitrogen. X parts of the photoinitiator in 6.7 parts of water were added, and the reaction vessel was then exposed for 60 minutes to light from a high pressure mercury vapor lamp of Type HQL/R 400 W from Osram, located 30 cm above the vessel. The beginning of polymerization was evident from an increase in the temperature. The amounts of photoinitiator employed and the properties of the resulting polymer dispersions are summerized in Table 5, photoinitiator 4 (cf. Table 1) being compared with photoinitiator VI (described in U.S. Pat. No. 4.257,859).

[10] = 1.7 parts X employed, 60 min exposure

Structure (SMILES)	Shelf life [2]	hardening time HT 25°-Tmax [4]	maximum hardening temperature Tmax [4]	hardening time HT 25°-Tmax [5]	maximum hardening temperature Tmax [5]	shelf life of resins compared with compounds II, III and V [6]	hardening time HT 25°-Tmax [7]	maximum hardening temperature Tmax [7]	further results
Cc1cc(C)c(C(=O)P(=O)(O)c2ccccc2)c(C)c1 [Compound 9]	180 h	5/45	129 °C	5/53	110 °C	substantially superior	4/45	125 °C	Shelf life [1]: 180 h; Shelf life [3]: 140 h; shelf life of resins compared with resins containing I [6]: not significantly different
Cc1cc(C)c(C(=O)P(=O)(OC(C)C)c2ccccc2)c(C)c1 (stereo not drawn) [II, isopropyl 2,4,6-trimethylbenzoylphenylphosphinate, reference compound]	140 h	6/08	120 °C	6/45	107 °C	–	5/15	128 °C	Shelf life [1]: 120 h; Shelf life [3]: 155 h
Cc1cc(C)c(C(=O)P(=O)(O)c2ccccc2)c(C)c1 [Compound 11]	180 h	5/15	120 °C	5/23	118 °C	substantially superior	4/30	124 °C	Shelf life [1]: 204 h; Shelf life [3]: 155 h; shelf life of resins compared with resins containing I [6]: not significantly different
Cc1cc(C)c(C(=O)P(=O)(O)c2ccccc2)c(C)c1 [Compound 14]	180 h	5/38	123 °C	5/30	122 °C	substantially superior	4/53	118 °C	Shelf life [1]: 204 h; Shelf life [3]: 155 h; shelf life of resins compared with resins containing I [6]: not significantly different; Minimum exposure time required for reproducing the 3% tonality [8]: 110 s
Cc1cc(C)c(C(=O)P(=O)(O)c2ccccc2)c(C)c1 [Compound 15]	–	7/30	109 °C	7/15	113 °C	–	8/00	119 °C	–
Cc1cc(C)c(C(=O)P(=O)(O)c2ccccc2)c(C)c1 [Compound 18]	270 h	–	–	–	–	substantially superior	–	–	–
Cc1cc(C)c(C(=O)P(=O)(O)c2ccccc2)c(C)c1 [Compound 8, Calcium bis-(2,4,6-trimethylbenzoylphenylphosphinate)]	–	–	–	5/53	114 °C	–	6/00	130 °C	–
Cc1cc(C)c(C(=O)P(=O)(O)c2ccccc2)c(C)c1 [Compound 5]	–	–	–	5/38	118 °C	–	–	–	–
Cc1cc(C)c(C(=O)P(=O)(O)c2ccccc2)c(C)c1 [Compound 13]	–	5/23	121 °C	6/08	115 °C	–	5/30	126 °C	–
Cc1cc(C)c(C(=O)P(=O)(O)c2ccccc2)c(C)c1 [Compound 6]	–	–	–	5/53	115 °C	–	–	–	–
COC(OC)(C(=O)c1ccccc1)c1ccccc1 [III, benzil dimethyl ketal, reference compound]	–	8/30	122 °C	8/00	114 °C	–	9/45	119 °C	Minimum exposure time required for reproducing the 3% tonality [8]: 165 s
Cc1cc(C)c(C(=O)P(=O)(O)c2ccccc2)c(C)c1 [Compound 17]	270 h	–	–	5/38	120 °C	substantially superior	–	–	–
C[N+]1(CC(O)(C(=O)c2ccccc2)c2ccccc2)CCCC1 (stereo not drawn) [VI]	–	–	–	–	–	–	–	–	polymerization outcome ([9]; 0.04 parts X employed): no polymerization; Fikentscher K value [9, 10]: 146.1; Residual monomers, ethyl acrylate [9, 10]: 0.012%; Residual monomers, methyl acrylate [9, 10]: 0.036%; Solids content [9, 10]: 30.8%; initiation of photopolymerization at very low starting concentrations ([9]; very low starting concentrations, in words): no longer initiates polymerization
Cc1cc(C)c(C(=O)P(=O)(O)c2ccccc2)c(C)c1 [Compound 16]	–	–	–	5/15	115 °C	–	–	–	–
